Assay results as given in publication PMC11304990, “Identification of mitochondrial ATP synthase as the cellular target of Ru-polypyridyl-β-carboline complexes by affinity-based protein profiling” (National Science Review, 2024).

How the values were obtained:
[1] = system: ATP5F1; assay: Cellular thermal shift assay (CETSA); type: cell-based; conditions: 10 μM
Experimental: Figure 1. Validation of ATP5F1 as the molecular target of Ru5. (A) Proteins pulled down by streptavidin from A549 cells treated with Ru5a followed by PAL. The cells were treated with Ru5a (50 μM) for 12 h and irradiated with UV light for 20 min. (B) The top five peptides enriched by Ru5a-mediated PAL were identified with the assistance of SILAC-based chemoproteomic studies. H1F0: H1 histone family member 0; HIST4H4: histone cluster 4 H4; HIST3H2BB: histone cluster 3 H2B family member b; ATP5F1E: ATP synthase F1 subunit epsilon; HIST1H2AJ: histone cluster 1 H2A family member J. (C) Pull-down western blotting analysis of ATPase in A549 cells treated with Ru5a. (D) Cellular Ru content in cells treated with Ru5/Ru5a (20 μM, 12 h) measured by ICP-MS. (E) Impact of Ru5/Ru5a (10 μM) on the thermal stability of ATP5F1 measured by CETSA. (F) Impact on the anticancer activities of Ru5/Ru5a against wild type and ATPase knocking down (by siRNA) A549 cells. The relative cellular viability was calculated using the cells without drug treatment in each group as the control group. (G) Inhibition of Ru5/Ru5a on the enzymatic activity of ATPase. (-)-blebbistatin was used as the positive control. (H) Molecular docking of Ru5 with ATPase (PDB: 3ZIA). The red dashes indicate the hydrogen bonds formed between Ru5 and the amino acid residues (SER38 and GLN39). […]

[2] = system: A549 xenograft; assay: A549 xenograft nude mice model; type: in vivo
Experimental: Lastly, the in vivo anticancer activity of Ru5 was assessed via a A549 xenograft nude mice model (Fig. 5A). Mice were treated with PBS, cisplatin (5 mg kg^−1) or Ru5 (5 mg kg^−1) for 14 days, during which body weights and tumor volumes were monitored.
Figure 5. […] (A) Schematic illustration of in vivo therapeutic protocol. (B) Graphs of tumor volumes of nude mice after treatment with Ru5 (5 mg kg^−1), cisplatin (5 mg kg^−1) and PBS. The intratumoral injections were performed every 7 days. Data are presented as means ± SD, n = 5. (C) Immunohistochemical analysis of hematoxylin-eosin (H&E) staining in tumor sections from mice with different treatments. Scale bar: 50 μm. (D) Tumors separated from nude mice. (E) The average body weight of the mice in each group during the treatment process. Data are presented as means ± SD, n = 5. (F) H&E staining of the main organs from mice with different treatments. Scale bar: 100 μm.

[3] = system: cisplatin-resistant A549R; assay: MTT antiproliferative assay, A549R; type: cell-based, human; conditions: 72 h
Description: (§1) Ru3–Ru9 also show a certain selectivity for cancer cells over normal cells, and Ru2, Ru3, Ru5 and Ru9 show higher selectivity index (SI) values than the other complexes.
(§2) PA-BPP was then used to confirm the molecular targets of Ru5 by modifying it with a ‘minimalist’ biorthogonal handle-containing photo-cross-linker. Through our structure–activity relationship analysis and comparison with other ruthenium complexes utilizing phen as the auxiliary ligands with similar coordination structures (using cisplatin as a control), we propose that the β-carboline ligands play an important role in antiproliferative activity. To maintain the binding characteristics of the β-carboline moiety with the targeted biomolecules, we linked the photo-cross-linker to one of the auxiliary ligands of Ru5.

[4] = system: malignant glioma (U87); assay: MTT antiproliferative assay, U87; type: cell-based, human; conditions: 72 h
Description: as §1, §2

Structure (SMILES): F[P-](F)(F)(F)(F)F.F[P-](F)(F)(F)(F)F.[Ru+2].c1ccc2c(c1)[nH]c1c(-c3ncc[nH]3)nccc12.c1cnc2c(c1)ccc1cccnc12.c1cnc2c(c1)ccc1cccnc12 [Ru5]
- Thermal stability of ATP5F1 [1]: increased
- Body weight loss ([2]; 5 mg kg−1, 14 days): no significant body weight loss
- Organ damage (H&E staining of the main organs) ([2]; 5 mg kg−1, 14 days): no significant
- Tumor inhibition compared with cisplatin and PBS ([2]; 5 mg kg−1, 14 days): better tumor inhibition
- Tumor growth inhibitory rate ([2]; 5 mg kg−1, intratumoral injection every 7 days, 14 days, compared with the control groups): ~89.6%
- IC50 [3]: 3.3 ± 0.7 µM
- IC50 [4]: 14.7 ± 0.7 µM
